Data from patent publication US8889591B2, “Herbicidal compositions comprising 4-amino-3-chloro-5-fluoro-6-(4-chloro-2-fluoro-3-methoxyphenyl)pyridine-2-carboxylic acid or a derivative thereof and bromobutide, daimuron, oxaziclomefone or pyributicarb” (Dow Agrosciences LLC, priority 2012, dated 2014).

Legend:
[1] = system: ECHOR; assay: In-water applied greenhouse weed control, transplanted paddy rice system; type: in vivo, Echinochloa oryzoides (Ard.) Fritsch; details: in-water application
Experimental: (§1) Weed seeds or nutlets of the desired test plant species were planted in puddled soil (mud) prepared by mixing a shredded, non-sterilized mineral soil (50.5 percent silt, 25.5 percent clay, and 24 percent sand, with a pH of about 7.6 and an organic matter content of about 2.9 percent) and water at a 1:1 volumetric ratio. The prepared mud was dispensed in 365 mL aliquots into 16-ounce (oz.) non-perforated plastic pots with a surface area of 86.59 square centimeters (cm^2) leaving a headspace of 3 centimeters (cm) in each pot. Mud was allowed to dry overnight prior to planting or transplanting. Rice seeds were planted in Sun Gro MetroMix® 306 planting mixture, which typically has a pH of 6.0 to 6.8 and an organic matter content of about 30 percent, in plastic plug trays. Seedlings at the second or third leaf stage of growth were transplanted into 840 mL of mud contained in 32-oz. non-perforated plastic pots with a surface area of 86.59 cm^2 4 days prior to herbicide application. The paddy was created by filling the headspace of the pots with 2.5 to 3 cm of water. When required to ensure good germination and healthy plants, a fungicide treatment and/or other chemical or physical treatment was applied. The plants were grown for 4-22 days in a greenhouse with an approximate 14 h photoperiod which was maintained at about 29° C. during the day and 26° C. during the night. Nutrients were added as Osmocote® (19:6:12, N:P:K+ minor nutrients) at 2 g per 16-oz. pot and 4 g per 32-oz. pot. Water was added on a regular basis to maintain the paddy flood, and supplemental lighting was provided with overhead metal halide 1000-Watt lamps as necessary. The plants were employed for testing when they reached the first through fourth true leaf stage.
(§2) Treatments consisted of the acid or esters of 4-amino-3-chloro-5-fluoro-6-(4-chloro-2-fluoro-3-methoxy-phenyl)pyridine-2-carboxylic acid (compound A) each formulated as an SC and various herbicidal components alone and in combination. Forms of compound A were applied on an acid equivalent basis.
(§3) Other herbicidal components were applied on an active ingredient basis and included daimuron formulated as an EC, bromobutide (technical grade material), and oxaziclomefone (technical grade material).
(§4) Treatment requirements for each compound or herbicidal component were calculated based upon the rates being tested, the concentration of active ingredient or acid equivalent in the formulation, an application volume of 2 mL per component per pot, and an application area of 86.59 cm^2 per pot.
(§5) For formulated compounds, a measured amount was placed in an individual 100 or 200 mL glass vial and was dissolved in a volume of 1.25% (v/v) Agri-Dex® crop oil concentrate to obtain application solutions.
(§6) For technical grade compounds, a weighed amount was placed in an individual 100 to 200 mL glass vial and was dissolved in a volume of acetone to obtain concentrated stock solutions. […] The concentrated stock solutions obtained were diluted with an equivalent volume of an aqueous mixture containing 2.5% (v/v) crop oil concentrate so that the final application solutions contained 1.25% (v/v) crop oil concentrate.
(§7) Applications were made by injecting, with a pipetter, appropriate amounts of the application solutions, individually and sequentially, into the aqueous layer of the paddy. Control plants were treated in the same manner with the solvent blank. Applications were made so that all treated plant material received the same concentrations of acetone and crop oil concentrate.
(§8) The treated plants and control plants were placed in a greenhouse as described above and water was added as needed to maintain a paddy flood. After approximately 3 weeks the condition of the test plants as compared with that of the untreated plants was determined visually and scored on a scale of 0 to 100 percent where 0 corresponds to no injury or growth inhibition and 100 corresponds to complete kill. […]

[2] = system: BRAPP; assay: Postemergence foliar-applied greenhouse weed control, direct-seeded rice system; type: in vivo
From the text: (§9) Seeds or nutlets of the desired test plant species were planted in a soil matrix prepared by mixing a loam or sandy loam soil (e.g., 28.6 percent silt, 18.8 percent clay, and 52.6 percent sand, with a pH of about 5.8 and an organic matter content of about 1.8 percent) and calcareous grit in an 80 to 20 ratio. The soil matrix was contained in plastic pots with a volume of 1 quart and a surface area of 83.6 square centimeters (cm^2). When required to ensure good germination and healthy plants, a fungicide treatment and/or other chemical or physical treatment was applied. The plants were grown for 8-22 days in a greenhouse with an approximate 14 h photoperiod which was maintained at about 29° C. during the day and 26° C. during the night. Nutrients (Peters Excel® 15-5-15 5-Ca 2-Mg and iron chelate) were applied in the irrigation solution as needed and water was added on a regular basis. Supplemental lighting was provided with overhead metal halide 1000-Watt lamps as necessary. The plants were employed for testing when they reached the first through fourth true leaf stage.
as §2, with “(Compound A),” for “(compound A)”, “SC (suspension concentrate),” for “SC”
(§10) Other herbicidal components were applied on an active ingredient basis and included diamuron formulated as an EC (emulsifiable concentrate) and oxaziclomefone (technical grade material).
(§11) Treatment requirements were calculated based upon the rates being tested, the concentration of active ingredient or acid equivalent in the formulation, and a 12 mL application volume at a rate of 187 L/ha.
(§12) For treatments comprised of formulated compounds, measured amounts of compounds were placed individually in 25 mL glass vials and diluted in a volume of 1.25% (v/v) Agri-Dex® crop oil concentrated to obtain 12× stock solutions. […] Application solutions were prepared by adding an appropriate amount of each stock solution (e.g., 1 mL) and diluted to the appropriate final concentrations with the addition of 10 mL of an aqueous mixture of 1.25% (v/v) crop oil concentrate so that the final spray solutions contained 1.25+/−0.05% (v/v) crop oil concentrate.
(§13) For treatments comprised of technical compounds, weighed amounts can be placed individually in 25 mL glass vials and dissolved in a volume of 97:3 v/v acetone/DMSO to obtain 12× stock solutions. […] Application solutions can be prepared by adding an appropriate amount of each stock solution (e.g., 1 mL) and diluted to the appropriate final concentrations with the addition of 10 mL of an aqueous mixture of 1.5% (v/v) crop oil concentrate so that the final spray solutions contain 1.25% (v/v) crop oil concentrate. When technical materials are used, the concentrated stock solutions can be added to the spray solutions so that the final acetone and DMSO concentrations of the application solutions are 16.2% and 0.5%, respectively.
(§14) For treatments comprised of formulated and technical compounds, weighed amounts of the technical materials were placed individually in 25 mL glass vials and dissolved in a volume of 97:3 v/v acetone/DMSO to obtain 12× stock solutions, and measured amounts of the formulated compounds were placed individually in 25 mL glass vials and diluted in a volume of 1.5% (v/v) crop oil concentrate or water to obtain 12× stock solutions. […] Application solutions were prepared by adding an appropriate amount of each stock solution (e.g., 1 mL) and diluted to the appropriate final concentrations with the addition of an appropriate amount of an aqueous mixture of 1.5% (v/v) crop oil concentrate so that the final spray solutions contained 1.25% (v/v) crop oil concentrate. […]

[3] = system: IPOHE; assay: as above; type: in vivo, Ipomoea hederacea Jacq.
From the text: as §9
as §2, with “(Compound A),” for “(compound A)”, “SC (suspension concentrate),” for “SC”
as §10, §11, §12, §13, §14

[4] = system: ECHCO; assay: as above; type: in vivo, Echinochloa colona (L.) Link
From the text: as §9
as §2, with “(Compound A),” for “(compound A)”, “SC (suspension concentrate),” for “SC”
as §10, §11, §12, §13, §14

[5] = system: ECHCG; assay: as above; type: in vivo, Echinochloa crusgalli (L.) Beauv.
From the text: as §9
as §2, with “(Compound A),” for “(compound A)”, “SC (suspension concentrate),” for “SC”
as §10, §11, §12, §13, §14

[6] = system: LEFCH; assay: as above; type: in vivo, Leptochloa chinensis (L.) Nees
From the text: as §9
as §2, with “(Compound A),” for “(compound A)”, “SC (suspension concentrate),” for “SC”
as §10, §11, §12, §13, §14

[7] = system: FIMMI; assay: In-water applied greenhouse weed control, transplanted paddy rice system; type: in vivo, Fimbristylis miliacea (L.) Vahl; details: in-water application
Experimental: as §1, §2, §3, §4, §5, §6, §7, §8

[8] = Daimuron 100 gai/ha alone (Table 2)
[9] = Daimuron 200 gai/ha alone (Table 2)
[10] = Daimuron 400 gai/ha alone (Table 2)

## Cc1ccc(NC(=O)NC(C)(C)c2ccccc2)cc1 [Daimuron, N-(4-methylphenyl)-N′-(1-methyl-1-phenylethyl)urea]
[1]; Daimuron 200 gai/ha alone
  Visual Weed Control (%) - 21 DAA ECHOR Obs: 0%
[1]; Daimuron 400 gai/ha alone
  Visual Weed Control (%) - 21 DAA ECHOR Obs: 15%
[1]; Diamuron 400 gai/ha alone
  Visual Weed Control (%) - 20 DAA ECHOR Obs: 60%
[2]; Daimuron 100 gai/ha alone
  Visual Weed Control (%) - 20 DAA BRAPP Obs: 0%
[2]; [8]
  Visual Weed Control (%) - 20 DAA BRAPP Obs: 0%
[2]; Daimuron 200 gai/ha alone
  Visual Weed Control (%) - 20 DAA BRAPP Obs: 0%
[2]; [9]
  Visual Weed Control (%) - 20 DAA BRAPP Obs: 0%
[2]; Daimuron 400 gai/ha alone
  Visual Weed Control (%) - 20 DAA BRAPP Obs: 0%
[2]; [10]
  Visual Weed Control (%) - 20 DAA BRAPP Obs: 0%
[3]; Daimuron 100 gai/ha alone
  Visual Weed Control (%) - 20 DAA IPOHE Obs: 0%
[3]; [8]
  Visual Weed Control (%) - 20 DAA IPOHE Obs: 0%
[3]; Daimuron 200 gai/ha alone
  Visual Weed Control (%) - 20 DAA IPOHE Obs: 10%
[4]; Daimuron 100 gai/ha alone
  Visual Weed Control (%) - 20 DAA ECHCO Obs: 0%
[4]; [8]
  Visual Weed Control (%) - 20 DAA ECHCO Obs: 0%
[4]; Daimuron 200 gai/ha alone
  Visual Weed Control (%) - 20 DAA ECHCO Obs: 10%
[4]; [9]
  Visual Weed Control (%) - 20 DAA ECHCO Obs: 10%
[4]; Daimuron 400 gai/ha alone
  Visual Weed Control (%) - 20 DAA ECHCO Obs: 10%
[4]; [10]
  Visual Weed Control (%) - 20 DAA ECHCO Obs: 10%
[5]; Daimuron 100 gai/ha alone
  Visual Weed Control (%) - 20 DAA ECHCG Obs: 0%
[5]; [8]
  Visual Weed Control (%) - 20 DAA ECHCG Obs: 0%
[5]; Daimuron 200 gai/ha alone
  Visual Weed Control (%) - 20 DAA ECHCG Obs: 0%
[5]; [9]
  Visual Weed Control (%) - 20 DAA ECHCG Obs: 0%
[5]; Daimuron 400 gai/ha alone
  Visual Weed Control (%) - 20 DAA ECHCG Obs: 0%
[5]; [10]
  Visual Weed Control (%) - 20 DAA ECHCG Obs: 0%
[6]; Daimuron 100 gai/ha alone
  Visual Weed Control (%) - 20 DAA LEFCH Obs: 0%
[6]; Daimuron 200 gai/ha alone
  Visual Weed Control (%) - 20 DAA LEFCH Obs: 0%
[6]; [9]
  Visual Weed Control (%) - 20 DAA LEFCH Obs: 0%
[6]; Daimuron 400 gai/ha alone
  Visual Weed Control (%) - 20 DAA LEFCH Obs: 0%
[6]; [10]
  Visual Weed Control (%) - 20 DAA LEFCH Obs: 0%
[7]; Daimuron 200 gai/ha alone
  Visual Weed Control (%) - 21 DAA FIMMI Obs: 10%
[7]; Daimuron 400 gai/ha alone
  Visual Weed Control (%) - 21 DAA FIMMI Obs: 80%
